Reference: a melting point compilation (Tetko et al.; mined from patent text by program, amines drawn as free bases though some values may be those of a salt)

`C=CCc1c(O)ccc2oc(C(=O)OCC)cc12` gave a melting point of 94 to 95 °C.
`O=C(O)c1ccc(S(=O)(=O)Oc2ccc(-c3ccc(-c4c(Cc5ccccc5)sc5ccccc45)cc3)cc2Br)cc1O` gave a melting point of 117 to 119 °C.
In the case of `Brc1ccc2c(c1)C(c1ccccn1)=NCc1nncn1-2`, the melting point is reported as 252 to 255 °C.
Work on `C[C@@H](n1cnc2cc(NC(=O)C(F)(F)F)c(F)cc2c1=O)[C@](O)(Cn1cncn1)c1ccc(F)cc1F` yielded a melting point of 130 to 132 °C.
In the case of `N#Cc1ccc(Oc2ncccc2C(=O)O)cc1`, the melting point is reported as 198 to 200 °C.
Molecule `Cn1ncc2c1=CC1=CC=C(N)C(=O)C=21` has a melting point of 225 to 227 °C.
Work on `CCCc1ccc(-c2ccn([C@H](CC(=O)O)C(=O)N[C@H](C(=O)NC)C(C)(C)C)c2)cc1` yielded a melting point of 104 to 106 °C.
`CCCCn1cc(N)c(=O)c2cnc(-c3ccncc3)nc21` gave a melting point of 195 to 196 °C.
In the case of `COc1ccccc1CN[C@H]1CCCN(C)[C@H]1c1ccccc1` (relative stereo), the melting point is reported as 58 °C.
Molecule `Cc1ccc(S(=O)(=O)Oc2ccc(S(=O)(=O)c3c(C(C)C)cn4ncccc34)cc2)cc1` has a melting point of 149 °C.
With `CCOc1cc(OCC)c(C=NNC(=N)NCc2ccccc2)c(OCC)c1` the melting point was 140 to 141 °C.
In the case of `O=CNc1ccc([N+](=O)[O-])cc1`, the melting point is reported as 195 to 199 °C.
Work on `Cc1ccc(Cl)cc1NC(=S)Nc1nc(C)c(C)s1` yielded a melting point of 188 to 189 °C.
`CS(=O)c1[nH]cc(CCc2ccccc2)c1[N+](=O)[O-]` (centres undefined) showed a melting point of 172 to 173 °C.
Molecule `N#Cc1ccc(-c2ccc(NCCCC3CCCCO3)cc2)cc1` (centres undefined) has a melting point of 111 to 113 °C.
With `COc1cc2cc(/C=N\O)sc2cc1OC` the melting point was 211 to 215 °C.
For `CC(C)(C)CNc1cc(F)cc(C(=O)Nc2ccc(OCCN3CCOCC3)c3ccccc23)c1`, the melting point was 85 to 87 °C.
Work on `CC(C)CC(NC(=O)C(Cc1c[nH]cn1)NC(=O)C(CC(=O)N1CCOCC1)Cc1cccc2ccccc12)C(O)C(=O)OC(C)C` (mixture of isomers) yielded a melting point of 95 to 98 °C.
`CC(=O)N[C@@H](C)COC1CCN(c2nc3cc(OCC4CC4)ccc3o2)CC1` showed a melting point of 99 to 100 °C.
In the case of `Fc1ccc2c(c1)C(=C1CCNCC1)c1ncccc1CC2`, the melting point is reported as 78 to 81 °C.
In the case of `CC(C)(C)OC(=O)NCC(=O)Nn1cccc1C(=O)c1ccccc1Cl`, the melting point is reported as 156 to 158 °C.
Molecule `O=[N+]([O-])c1cc(-c2nnc(Nc3ccc(Cl)c(Cl)c3)s2)cc([N+](=O)[O-])c1` has a melting point of 305 to 306 °C.
In the case of `O=C1CCC(c2ccc3[nH]c(-c4ccccc4Cl)cc3c2)=NN1`, the melting point is reported as 236 to 239 °C.
Work on `COc1c(Cl)ccc(-c2cc(N)c(Cl)c(CNCC(=O)O)n2)c1F` yielded a melting point of 189 to 191 °C.
In the case of `O=C(NCc1ccccc1Cl)c1ccccc1CN1C(=O)C2(COc3cc4c(cc32)CCO4)c2ccccc21` (centres undefined), the melting point is reported as 148 to 150 °C.
Molecule `CCCCCCCCCCCCc1ccccc1C(Sc1nc(C)c(C(=O)O)n1C)C(=O)O` (centres undefined) has a melting point of 104 to 106 °C.
`O=c1c2ccc(Cl)cc2[nH]c2c(O)nn(-c3ccc(Cl)cc3Cl)c(=O)c12` gave a melting point of 360 to 361 °C.
`CCOc1ccc(-c2nc(CCC(O)c3ccccc3OC)cs2)cc1OCC` (centres undefined) showed a melting point of 78.2 to 79 °C.
Molecule `O=c1cc(-c2ccc(OCc3ccccc3)cc2)oc2cc(OCc3ccccc3)cc(OCc3ccccc3)c12` has a melting point of 60 to 62 °C.
Work on `CCCCCCCNC(=O)Nc1ccc(C(C)C)cc1C(=O)NCC1CCN(C(c2ccccc2)c2ccccc2)CC1` yielded a melting point of 179 to 180 °C.
In the case of `CCOC(=O)C(C)(C)NC(=O)c1c(Cl)c2cc(Oc3ccc(C(F)(F)F)cc3)ccc2n1-c1ccc(OC(C)C)cc1`, the melting point is reported as 135 to 137 °C.
For `Cn1cc2c3c(ccc2n1)CCC3=CC#N`, the melting point was 189 to 192 °C.
With `CCOC(=O)CC1(c2ccc(OC)c(OC)c2)CNC(=O)C1` (centres undefined) the melting point was 60 to 62 °C.
In the case of `Cc1c(Cc2ccc(C(C)C)cc2)c2c(c(C)c1NC(=O)CC(C)(C)C)C(N1CCCC1)C(C)(C)O2` (centres undefined), the melting point is reported as 179 to 180 °C.
Molecule `COc1ccc(-n2c(C)cc(=O)[nH]c2=S)cc1` has a melting point of 248 to 249 °C.
Molecule `Cc1c(C(=O)O)nn(-c2ccc(Cl)cc2Cl)c1-c1ccc(Cl)cc1` has a melting point of 211 °C.
For `CN1CCN(c2cccc3c2C[C@H](NC(=O)c2ccc(C(=O)N4CCOCC4)cc2)CC3)CC1`, the melting point was 124 to 127 °C.
`CCOC(=O)CC[C@H](NC(=O)c1ccc(NCCCc2c(N(C(C)=O)C(C)=O)nc(NC(C)=O)[nH]c2=O)c(OC)c1)C(=O)OCC` showed a melting point of 73 to 84 °C.
Work on `CC(C)(C)C(=O)Oc1ccc(-c2nnn(CCO)n2)cc1` yielded a melting point of 92 to 95 °C.
For `C[C@@H](Cn1ncc2ccc3c(c21)O[C@@H](CN=[N+]=[N-])CO3)NC(=O)OC(C)(C)C`, the melting point was 134 to 135 °C.
For `CC(O)(C(=O)Nc1ccc(S(=O)(=O)F)cc1)C(F)(F)F` (centres undefined), the melting point was 152 to 154 °C.
For `COc1cc(C(C)=O)ccc1OC(C)=O`, the melting point was 58.7 °C.
With `COC(=O)/C=C/c1c(OC)cccc1OC` the melting point was 76 to 78 °C.
Work on `N#CN1CCC(c2n[nH]c3cc(F)ccc23)CC1` yielded a melting point of 143 to 145 °C.
With `COc1cc(-c2cc(=O)c3ccc(OCCBr)cc3o2)cc(OC)c1OC` the melting point was 184 to 185 °C.
`CC(=O)SCSc1c[nH]nn1` showed a melting point of 88 to 89 °C.
Molecule `CC1(C)CC(C(O)CNc2nc(NCc3ccccc3)nc(NCC(O)C3CC(C)(C)NC(C)(C)C3)n2)CC(C)(C)N1` (centres undefined) has a melting point of 88 °C.
Work on `O=C1Nc2ccc(Br)cc2C2(CCCCC2)O1` yielded a melting point of 208 to 210 °C.
`NC(=O)c1ccn2c1CSC2` showed a melting point of 186 °C.
